Measurements reported in PMC6332220, “Synthesis, Characterization and Biological Evaluation of Some Quinoxaline Derivatives: A Promising and Potent New Class of Antitumor and Antimicrobial Agents” (Molecules, 2015).
Values after ≈ are worked out from the molar mass of the structure shown.

Experiments:
[1] = system: MCF-7 (breast adenocarcinoma); experiment: In vitro cytotoxicity, SRB cell growth assay, MCF-7; conditions: Homo sapiens, MCF7, 48 h, read-out: IC50 (μg/mL) MCF-7
Protocol: The in vitro cytotoxic activity of the newly synthesized compounds against human breast cell line (MCF7), non-small cell lung cancer NCIH460, CNS cancer SF-268 and WI 38 (normal fibroblast cells) were evaluated using doxorubicin as the reference drug according to the method reported by Skehan et al..
The newly synthesized compounds were evaluated in vitro against three human cancer cell lines; which are MCF-7 (breast adenocarcinoma), NCI-H460 (non-small cell lung cancer) and SF-268 (CNS cancer), and WI 38 (normal fibroblast cells) were used in this study. MCF-7 was obtained from the European Collection of Cell Cultures (ECACC, Salisbury, UK) but NCI-H460, SF-268 and WI 38 were kindly provided by the National Cancer Institute (NCI, Cairo, Egypt). They grow as monolayer and routinely maintained RPMI-1640 medium supplemented with 5% heat inactivated fetal bovine serum (FBS), 2 mM glutamine and antibiotics (penicillin 100 U/mL, streptomycin 100 µg/mL), at 37 °C in a humidified atmosphere containing 5% CO2. Exponentially growing cells were obtained by plating 1.5 × 10^5 cells/mL for MCF-7 and SF-268, and 0.75 × 10^4 cells/mL for NCI-H460 followed by 24 h of incubation. The effect of the vehicle solvent (DMSO) on the growth of these cell lines was evaluated in all experiments by exposing untreated control cells to the maximum concentration (0.5%) of DMSO used in each assay.
The effect of compounds on the in vitro growth of human tumor cell lines were evaluated according to the procedure adopted by the National Cancer Institute ([…]) in the “In vitro Anticancer Drug Discovery Screen” that uses the protein-binding dye sulforhodamine B (SRB) to assess cell growth. In the assay protocol, all cells were incubated at 37 °C under humidified atmosphere containing 5% CO2. Briefly, exponentially cells growing in 96-well plates were then exposed for 48 h to five serial concentrations of each compound, starting from a maximum concentration of 150 μg/mL. Following this exposure period adherent cells were fixed, washed and stained. The bound stain was solubilized and the absorbance was measured at 492 nm in a plate reader (Bio-Tek Instruments Inc., Power wave XS, Winston, NC, USA). For each test compound and cell line, a dose response curve was obtained and the inhibitory concentration of 50% (IC50), corresponding to the concentration of the compounds that inhibited 50% of the net cell growth was calculated as described elsewhere. Doxorubicin was used as a positive control and tested in the same manner.

Aspergillus flavus = experiment: Disk diffusion, Aspergillus flavus; type: cell-based; conditions: Fungi, 8.0 mm disks, 10 μL
Protocol: (§1) The disk diffusion method was used for determination of the antimicrobial activity using ampicillin, gentamicin and amphotericin B as reference drugs. The results were recorded for each compounds as the average diameter as inhibition zones (IZ) of bacterial or fungal growth around the discs in mm as shown in Table 2.
(§2) Antimicrobial activities were carried out against highly pathogenic strains; three strains of Gram positive bacteria (Bacillus subtilis, Staphylococcus aureus and Streptococcus faecalis), four strains of Gram negative bacteria (Escherichia coli, Neisseria gonorrhoeae, Pseudomonas aeruginosa and Salmonella typhimurium) and three fungi strains (Aspergillus flavus, Aspergillus fumigatus and Candida albicans) isolated from primary agar plates. Antimicrobial activity of the tested samples was determined using a modified Kriby-Bauer disk diffusion method. Briefly, 100 µL of the test bacteria/fungi were grown in 10 mL of fresh media until they reached a count approximately 10^8 cells/mL for bacteria or 10^5 cells/mL for fungi. 100 µL of microbial suspension was spread onto agar plates corresponding to the broth in which they were maintained. The inoculated plates of bacterial strains were incubated at 35–37 °C for 24–48 h, while the inoculated plates of fungal strains such as A. flavus and A. fumigatus were incubated at 25 °C for 48 h and yeast as C. albicans was incubated at 30 °C for 24–48 h.
(§3) The agar disk diffusion (qualitative) method was used in this investigation for determination of the preliminary antibacterial and antifungal activities. The agar used was Mueller-Hinton agar plates that are rigorously tested for composition and pH. Further the depth of the agar in the plate is a factor to be considered in the disk diffusion method.
(§4) Reference drugs: ampicillin was used as a standard antibacterial drug for Gram positive bacteria, gentamicin as a standard antibacterial drug for Gram negative bacteria and amphotericin B as antifungal standard drug.
Bacterial and fungal strains were spread onto the surface of the agar plates using sterile cotton swabs. For evaluation of antibacterial activities, blank paper disks (Schleicher & Schuell, Alicante, Spain) with a diameter of 8.0 mm were saturated with 10 μL of tested concentration of the stock solutions. Disks were dried and then placed onto inoculated agar plates. The plates of bacterial strains were reincubated at 35–37 °C for 24–48 h, while the plates of fungal strains such as A. flavus and A. fumigatus were reincubated at 25 °C for 48 h and yeast as C. albicans was reincubated at 30 °C for 24–48 h as mentioned above. […] For an accurate analysis, tests were run in triplicate for each strain to avoid any error as described in Table 2.
Disk diffusion method for filamentous fungi testing by using approved standard method (M02-A11) developed by the CLSI for evaluating the susceptibilities of filamentous fungi to antifungal agents. Disk diffusion method for yeasts developed by using approved standard method (M44-A2) by the CLSI [44]. Agar-based methods such as disk diffusion can be good alternatives because they are simpler and faster than broth-based methods.

Escherichia coli = experiment: MIC by broth dilution, Escherichia coli; type: cell-based; conditions: Escherichia coli, Gram negative, 0.98-125 µg/mL, read-out: Minimum Inhibitory Concentration (MIC) (µg/mL) Escherichia coli
Protocol: (§5) In this study, MIC (quantitative method) was used for evaluation of the antimicrobial activity of tested compounds. Screening was evaluated in vitro using the Broth dilution method according to CLSI [45]. All the bacteria were incubated and activated at 30 °C for 24 h inoculation into nutrient broth and the fungi were incubated in malt extract broth for 48 h. The compounds were dissolved in DMSO and then diluted using […] Mueller-Hinton broth. […] In each case triplicate tests were performed and the average was taken as the final reading. The tubes were then inoculated with the test organisms, grown in their suitable broth at 37 °C for 24 h for tested microorganisms (1 × 10^8 CFU/mL for bacteria and 1 × 10^6 CFU/mL of fungi), each 5 mL received 0.1 mL of the above inoculum and incubated at 37 °C for 24 h.

[2] = system: Gram positive and negative bacteria; experiment: Disk diffusion, summary over bacterial strains; type: cell-based; conditions: range over bacterial strains as summarised in text
Protocol: as §1
as §2, with “The inoculated plates of bacterial strains were incubated at 35–37 °C for 24–48 h, while the inoculated plates of fungal strains such as A. flavus and A. fumigatus were incubated at 25 °C for 48 h and yeast as C. albicans was incubated at 30 °C for 24–48 h.” left out

[3] = system: Gram positive and negative bacteria; experiment: MIC by broth dilution, summary over bacterial strains; type: cell-based; conditions: range over bacterial strains as summarised in text
Protocol: as §1, §5

Candida albicans = experiment: MIC by broth dilution, Candida albicans; type: cell-based; conditions: Fungi, 0.98-125 µg/mL, read-out: Minimum Inhibitory Concentration (MIC) (µg/mL) Candida albicans
Protocol: as §1, §5

Aspergillus fumigatus = experiment: MIC by broth dilution, Aspergillus fumigatus; type: cell-based; conditions: Fungi, 0.98-125 µg/mL, read-out: Minimum Inhibitory Concentration (MIC) (µg/mL) Aspergillus fumigatus
Protocol: as §1, §5

[4] = system: A. fumigatus and C. albicans; experiment: Disk diffusion, summary over A. fumigatus and C. albicans; type: cell-based; conditions: range over both fungi
Protocol: as §1, §2, §3, §4
Bacterial and fungal strains were spread onto the surface of the agar plates using sterile cotton swabs. […]

[5] = system: A. fumigatus and C. albicans; experiment: MIC by broth dilution, summary over A. fumigatus and C. albicans; type: cell-based; conditions: range over both fungi
Protocol: as §1, §5

| SMILES | IC50 [1] [µg/mL] | Inhibition Zone Diameter (IZ) (mm) Aspergillus flavus (Aspergillus flavus) | MIC (Escherichia coli) [µg/mL] | IZ range against Gram positive and negative bacteria [2] | MIC range against Gram positive and negative bacteria [3] [µg/mL] | MIC (Candida albicans) [µg/mL] | MIC (Aspergillus fumigatus) [µg/mL] | IZ range against A. fumigatus and C. albicans [4] | MIC range against A. fumigatus and C. albicans [5] [µg/mL] |
| --- | --- | --- | --- | --- | --- | --- | --- | --- | --- |
| NNc1nc2cc(Br)ccc2nc1Cl [Compound 3, 6-Bromo-2-chloro-3-hydrazinylquinoxaline] | 36 ± 7.33 (≈ 132 µM) | R (R (IZ = 0 mm)) | 3.9 (≈ 14.3 µM) | 13–15 mm | 0.98 to 125 |  |  |  |  |
| Clc1nc2ccc(Br)cc2n2nnnc12 [Compound 4, 8-Bromo-4-chlorotetrazolo[1,5-a]quinoxaline] | 0.02 ± 0.006 (≈ 0.0703 µM) | 13 mm | 3.9 (≈ 13.7 µM) |  |  | 3.9 (≈ 13.7 µM) |  |  |  |
| Brc1ccc2nc(N3CCCCC3)c3nnnn3c2c1 [Compound 5a, 8-Bromo-4-(piperidin-1-yl)tetrazolo[1,5-a]quinoxaline] | 0.01 ± 0.001 (≈ 0.03 µM) | R (R (IZ = 0 mm)) | 125 (≈ 375 µM) |  |  | 62.5 (≈ 188 µM) | 31.2 (≈ 93.8 µM) | 5–13 mm | 0.98 to 62.5 |
| Brc1ccc2nc(N3CCOCC3)c3nnnn3c2c1 [Compound 5b, 8-Bromo-4-(morpholin-4-yl)tetrazolo[1,5-a]quinoxaline] | 0.02 ± 0.002 (≈ 0.0597 µM) | R (R (IZ = 0 mm)) | 1.95 (≈ 5.82 µM) |  |  | 3.9 (≈ 11.6 µM) | 1.95 (≈ 5.82 µM) | 5–13 mm | 0.98 to 62.5 |
| NNc1nc2ccc(Br)cc2nc1NN [Compound 9, 6-Bromo-2,3-dihydrazinylquinoxaline] | 37.1 ± 7.34 (≈ 138 µM) | R (R (IZ = 0 mm)) | 1.95 (≈ 7.25 µM) |  |  | 0.98 (≈ 3.64 µM) | 0.98 (≈ 3.64 µM) | 5–13 mm | 0.98 to 62.5 |
| Brc1ccc2c(c1)n1nnnc1c1nnnn21 [Compound 11, 9-Bromoditetrazolo[1,5-a:5′,1′-c]quinoxaline] | 1.18 ± 1.03 (≈ 4.05 µM) | R (R (IZ = 0 mm)) | 62.5 (≈ 215 µM) |  |  |  |  |  |  |
| Cc1cc(C)n(-c2nc3cc(Br)ccc3nc2NN)n1 [Compound 14, 6-Bromo-3-(3,5-dimethyl-1H-pyrazol-1-yl)-2-hydrazinyl quinoxaline] | 30.3 ± 3.86 (≈ 91 µM) | R (R (IZ = 0 mm)) | 3.9 (≈ 11.7 µM) |  |  |  |  |  |  |
| NC1=NN(c2nc3ccc(Br)cc3nc2N2N=C(N)CC2=O)C(=O)C1 [Compound 16, 6-Bromo-2,3-bis(3-amino-1H-pyrazol-5(4H)-one)quinoxaline] | 12.8 ± 1.46 (≈ 31.8 µM) | R (R (IZ = 0 mm)) | 3.9 (≈ 9.67 µM) |  |  |  |  |  |  |
